Experimental data published in publication PMC10218596 (International Journal of Molecular Sciences, 2023).

What was measured:
Type in all cases: cell-based
h[α6Q14R/α3]β4 = biological target: T1, h[α6Q14R/α3]β4 (Homo sapiens, UniProt P30926+P32297+Q15825, Q47R); settings: ACh on h[α6Q14R/α3]β4
T1 construct: formed by splicing the N-terminal extracellular domain of the α6 subunit with the α3 subunit; human nAChR α3 subunit (CHRNA3); expressed in transfected cells; host or cells: Xenopus laevis oocytes injected with cRNA (plasmids from the University of Utah)

h[α6K81N/α3]β4 = biological target: T2, h[α6K81N/α3]β4 (Homo sapiens, UniProt P30926+P32297+Q15825, K114N); settings: ACh on h[α6K81N/α3]β4
T2 construct: formed by splicing the N-terminal extracellular domain of the α6 subunit with the α3 subunit; fusion partner: remainder of the human α3 subunit (CHRNA3); expressed in transfected cells; host or cells: Xenopus laevis oocytes injected with cRNA

h[α6N110D/α3]β4 = biological target: T3, h[α6N110D/α3]β4 (Homo sapiens, UniProt P30926+P32297+Q15825, N143D); experiment: Electrophysiological assay, ACh concentration-response (Xenopus oocytes); settings: ACh on h[α6N110D/α3]β4
T3 construct: formed by splicing the N-terminal extracellular domain of the α6 subunit with the α3 subunit; fusion partner: remainder of the human α3 subunit (CHRNA3); expressed in transfected cells; host or cells: Xenopus laevis oocytes injected with cRNA
T3 sequence (Q15825+P32297 fused with the stated changes): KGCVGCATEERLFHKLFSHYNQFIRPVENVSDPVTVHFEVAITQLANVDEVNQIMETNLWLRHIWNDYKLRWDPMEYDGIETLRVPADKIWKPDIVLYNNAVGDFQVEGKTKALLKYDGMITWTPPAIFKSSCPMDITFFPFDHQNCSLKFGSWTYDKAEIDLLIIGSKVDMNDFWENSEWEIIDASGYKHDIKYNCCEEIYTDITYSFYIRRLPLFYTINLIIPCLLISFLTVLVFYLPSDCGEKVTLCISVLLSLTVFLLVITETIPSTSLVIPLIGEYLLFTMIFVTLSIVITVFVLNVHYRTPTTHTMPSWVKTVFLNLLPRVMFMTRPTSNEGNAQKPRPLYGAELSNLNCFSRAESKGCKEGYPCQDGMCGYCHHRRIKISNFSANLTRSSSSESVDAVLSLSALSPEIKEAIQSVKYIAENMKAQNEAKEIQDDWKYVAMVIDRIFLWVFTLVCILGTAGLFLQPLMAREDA
T3 sequence (P30926 22-498): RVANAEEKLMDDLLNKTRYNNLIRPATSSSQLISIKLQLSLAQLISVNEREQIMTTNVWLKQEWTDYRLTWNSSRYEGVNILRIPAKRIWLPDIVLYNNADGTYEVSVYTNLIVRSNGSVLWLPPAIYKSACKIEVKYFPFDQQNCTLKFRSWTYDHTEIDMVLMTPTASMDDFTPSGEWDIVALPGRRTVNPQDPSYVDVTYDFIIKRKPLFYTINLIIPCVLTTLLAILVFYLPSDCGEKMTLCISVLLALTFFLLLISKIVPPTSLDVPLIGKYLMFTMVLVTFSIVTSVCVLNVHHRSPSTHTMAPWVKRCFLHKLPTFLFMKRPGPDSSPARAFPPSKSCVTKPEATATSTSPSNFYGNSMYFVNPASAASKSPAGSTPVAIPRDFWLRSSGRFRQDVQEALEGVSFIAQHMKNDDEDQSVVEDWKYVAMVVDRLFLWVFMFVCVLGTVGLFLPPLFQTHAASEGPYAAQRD

h[α6V32L, K61R/α3]β4 = biological target: T4, h[α6V32L, K61R/α3]β4 (Homo sapiens, UniProt P30926+P32297+Q15825, K94R/V65L); settings: ACh on h[α6V32L
T4 construct: formed by splicing the N-terminal extracellular domain of the α6 subunit with the α3 subunit; fusion partner: remainder of the human α3 subunit (CHRNA3); expressed in transfected cells; host or cells: Xenopus laevis oocytes injected with cRNA

h[α6N58K/α3]β4 = biological target: T5, h[α6N58K/α3]β4 (Homo sapiens, UniProt P30926+P32297+Q15825, N91K); experiment: Electrophysiological assay, ACh concentration-response (Xenopus oocytes); settings: ACh on h[α6N58K/α3]β4
T5 construct: formed by splicing the N-terminal extracellular domain of the α6 subunit with the α3 subunit; human nAChR α3 subunit (CHRNA3); expressed in transfected cells; host or cells: Xenopus laevis oocytes injected with cRNA (plasmids from the University of Utah)

h[α6I176V/α3]β4 = biological target: T6, h[α6I176V/α3]β4 (Homo sapiens, UniProt P30926+P32297+Q15825, I209V); experiment: as above; settings: ACh on h[α6I176V/α3]β4
T6 construct: formed by splicing the N-terminal extracellular domain of the α6 subunit with the α3 subunit; fusion partner: remainder of the human α3 subunit (CHRNA3); expressed in transfected cells; host or cells: Xenopus laevis oocytes injected with cRNA
T6 sequence (Q15825+P32297 fused with the stated changes): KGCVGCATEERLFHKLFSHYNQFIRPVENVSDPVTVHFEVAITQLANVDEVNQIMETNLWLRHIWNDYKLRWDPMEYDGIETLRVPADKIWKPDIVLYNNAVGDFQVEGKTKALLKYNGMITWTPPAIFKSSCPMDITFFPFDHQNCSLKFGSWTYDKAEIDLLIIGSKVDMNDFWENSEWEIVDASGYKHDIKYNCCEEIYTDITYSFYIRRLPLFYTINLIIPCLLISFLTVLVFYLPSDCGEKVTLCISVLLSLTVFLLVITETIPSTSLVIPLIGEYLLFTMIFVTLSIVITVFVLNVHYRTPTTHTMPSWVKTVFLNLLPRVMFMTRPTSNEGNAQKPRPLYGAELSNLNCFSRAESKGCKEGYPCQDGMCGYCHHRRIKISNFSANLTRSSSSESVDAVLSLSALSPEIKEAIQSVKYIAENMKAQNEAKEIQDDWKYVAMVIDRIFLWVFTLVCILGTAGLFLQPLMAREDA
T6 sequence (P30926 22-498): as the sequence (P30926 22-498) above

h[α6R3Q/α3]β4 = biological target: T7, h[α6R3Q/α3]β4 (Homo sapiens, UniProt P30926+P32297+Q15825, R36Q); experiment: as above; settings: ACh on h[α6R3Q/α3]β4
T7 construct: formed by splicing the N-terminal extracellular domain of the α6 subunit with the α3 subunit; human nAChR α3 subunit (CHRNA3); expressed in transfected cells; host or cells: Xenopus laevis oocytes injected with cRNA (plasmids from the University of Utah)
T7 sequence (Q15825+P32297 fused with the stated changes): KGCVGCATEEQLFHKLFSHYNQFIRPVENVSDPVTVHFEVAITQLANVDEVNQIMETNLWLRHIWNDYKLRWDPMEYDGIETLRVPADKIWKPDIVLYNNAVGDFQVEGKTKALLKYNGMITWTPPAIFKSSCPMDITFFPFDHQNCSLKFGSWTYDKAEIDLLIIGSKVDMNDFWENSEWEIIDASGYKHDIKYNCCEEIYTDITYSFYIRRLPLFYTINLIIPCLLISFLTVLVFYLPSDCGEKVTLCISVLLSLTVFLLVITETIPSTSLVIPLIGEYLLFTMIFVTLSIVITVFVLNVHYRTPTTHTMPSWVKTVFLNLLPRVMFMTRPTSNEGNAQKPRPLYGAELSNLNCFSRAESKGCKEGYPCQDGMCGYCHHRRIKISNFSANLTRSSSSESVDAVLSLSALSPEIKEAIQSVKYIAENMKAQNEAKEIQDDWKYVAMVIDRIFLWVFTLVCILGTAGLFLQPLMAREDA
T7 sequence (P30926 22-498): as the sequence (P30926 22-498) above

h[α6R63C/α3]β4 = biological target: T8, h[α6R63C/α3]β4 (Homo sapiens, UniProt P30926+P32297+Q15825, R96C); settings: ACh on h[α6R63C/α3]β4
T8 construct: formed by splicing the N-terminal extracellular domain of the α6 subunit with the α3 subunit; human nAChR α3 subunit (CHRNA3); expressed in transfected cells; host or cells: Xenopus laevis oocytes injected with cRNA (plasmids from the University of Utah)

h[α6K61R/α3]β4 = biological target: T9, h[α6K61R/α3]β4 (Homo sapiens, UniProt P30926+P32297+Q15825, K94R); experiment: Electrophysiological assay, ACh concentration-response (Xenopus oocytes); settings: ACh on h[α6K61R/α3]β4
T9 construct: formed by splicing the N-terminal extracellular domain of the α6 subunit with the α3 subunit; human nAChR α3 subunit (CHRNA3); expressed in transfected cells; host or cells: Xenopus laevis oocytes injected with cRNA (plasmids from the University of Utah)
T9 sequence (Q15825+P32297 fused with the stated changes): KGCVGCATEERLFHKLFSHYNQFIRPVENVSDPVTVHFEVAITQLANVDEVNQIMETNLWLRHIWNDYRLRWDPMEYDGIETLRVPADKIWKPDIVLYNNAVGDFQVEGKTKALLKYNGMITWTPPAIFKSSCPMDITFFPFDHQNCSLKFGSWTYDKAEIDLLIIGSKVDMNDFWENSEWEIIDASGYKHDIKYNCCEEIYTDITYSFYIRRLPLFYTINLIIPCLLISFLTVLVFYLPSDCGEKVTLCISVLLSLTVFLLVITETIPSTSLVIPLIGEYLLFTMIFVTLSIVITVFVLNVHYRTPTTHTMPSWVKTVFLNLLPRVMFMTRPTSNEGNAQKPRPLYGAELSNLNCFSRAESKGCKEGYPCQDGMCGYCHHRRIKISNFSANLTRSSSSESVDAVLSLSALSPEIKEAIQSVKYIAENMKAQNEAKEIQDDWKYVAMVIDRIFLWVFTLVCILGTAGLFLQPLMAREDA
T9 sequence (P30926 22-498): as the sequence (P30926 22-498) above

h[α6K7T/α3]β4 = biological target: T10, h[α6K7T/α3]β4 (Homo sapiens, UniProt P30926+P32297+Q15825, K40T); experiment: as above; settings: ACh on h[α6K7T/α3]β4
T10 construct: formed by splicing the N-terminal extracellular domain of the α6 subunit with the α3 subunit; human nAChR α3 subunit (CHRNA3); expressed in transfected cells; host or cells: Xenopus laevis oocytes injected with cRNA (plasmids from the University of Utah)

h[α6M67T/α3]β4 = biological target: T11, h[α6M67T/α3]β4 (Homo sapiens, UniProt P30926+P32297+Q15825, M100T); settings: ACh on h[α6M67T/α3]β4
T11 construct: formed by splicing the N-terminal extracellular domain of the α6 subunit with the α3 subunit; fusion partner: remainder of the human α3 subunit (CHRNA3); expressed in transfected cells; host or cells: Xenopus laevis oocytes injected with cRNA

h[α6V32L/α3]β4 = biological target: T12, h[α6V32L/α3]β4 (Homo sapiens, UniProt P30926+P32297+Q15825, V65L); settings: ACh on h[α6V32L/α3]β4
T12 construct: formed by splicing the N-terminal extracellular domain of the α6 subunit with the α3 subunit; human nAChR α3 subunit (CHRNA3); expressed in transfected cells; host or cells: Xenopus laevis oocytes injected with cRNA (plasmids from the University of Utah)

[1] = biological target: T13, h[α6V32L, K61R/α3]β4L107V,V115I (Homo sapiens, UniProt P30926+P32297+Q15825, K94R/L133V/V141I/V65L); settings: ACh on h[α6V32L
T13 construct: formed by splicing the N-terminal extracellular domain of the α6 subunit with the α3 subunit; fusion partner: remainder of the human α3 subunit (CHRNA3); expressed in transfected cells; host or cells: Xenopus laevis oocytes injected with cRNA

h[α6S10A/α3]β4 = biological target: T14, h[α6S10A/α3]β4 (Homo sapiens, UniProt P30926+P32297+Q15825, S43A); settings: ACh on h[α6S10A/α3]β4
T14 construct: formed by splicing the N-terminal extracellular domain of the α6 subunit with the α3 subunit; human nAChR α3 subunit (CHRNA3); expressed in transfected cells; host or cells: Xenopus laevis oocytes injected with cRNA (plasmids from the University of Utah)
T14 sequence (Q15825+P32297 fused with the stated changes): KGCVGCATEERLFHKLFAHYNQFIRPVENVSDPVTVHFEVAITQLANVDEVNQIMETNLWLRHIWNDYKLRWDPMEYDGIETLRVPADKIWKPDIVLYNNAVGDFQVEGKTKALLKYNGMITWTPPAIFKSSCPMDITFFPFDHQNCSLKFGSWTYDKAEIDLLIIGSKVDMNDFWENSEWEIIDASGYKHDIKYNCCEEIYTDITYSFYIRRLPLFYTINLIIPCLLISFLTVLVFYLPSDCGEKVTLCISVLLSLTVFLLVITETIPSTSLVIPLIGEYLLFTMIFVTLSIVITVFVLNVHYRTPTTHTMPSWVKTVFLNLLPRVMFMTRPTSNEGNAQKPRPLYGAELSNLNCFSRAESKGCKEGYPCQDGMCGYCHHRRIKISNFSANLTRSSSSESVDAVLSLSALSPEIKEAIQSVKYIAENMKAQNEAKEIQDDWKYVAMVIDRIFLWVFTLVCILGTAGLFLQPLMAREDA
T14 sequence (P30926 22-498): as the sequence (P30926 22-498) above

h[α6M112V/α3]β4 = biological target: T15, h[α6M112V/α3]β4 (Homo sapiens, UniProt P30926+P32297+Q15825, M145V); settings: ACh on h[α6M112V/α3]β4
T15 construct: formed by splicing the N-terminal extracellular domain of the α6 subunit with the α3 subunit; fusion partner: remainder of the human α3 subunit (CHRNA3); expressed in transfected cells; host or cells: Xenopus laevis oocytes injected with cRNA

CC(=O)OCC[N+](C)(C)C [ACh, acetylcholine chloride]
Hill Slope (h[α6Q14R/α3]β4): 1.4 (1.2–1.6) | Hill Slope (h[α6K81N/α3]β4): 1.4 (1.3–1.7) | Hill Slope (h[α6N110D/α3]β4): 1.2 (0.9–1.6) | Hill Slope (h[α6V32L, K61R/α3]β4): 1.2 (1.1–1.3) | Hill Slope (h[α6N58K/α3]β4): 1.4 (1.2–1.7) | Hill Slope (h[α6I176V/α3]β4): 1.7 (1.4–2.1) | Hill Slope (h[α6R3Q/α3]β4): 1.4 (1.2–1.8) | Hill Slope (h[α6R63C/α3]β4): 1.5 (1.2–1.8) | Hill Slope (h[α6K61R/α3]β4): 1.4 (1.2–1.7) | Hill Slope (h[α6K7T/α3]β4): 1.5 (1.1–1.9) | Hill Slope (h[α6M67T/α3]β4): 1.4 (0.9–2.2) | Hill Slope (h[α6V32L/α3]β4): 1.5 (1.3–1.9) | Hill Slope [1]: 1.2 (1.0–1.5) | Hill Slope (h[α6S10A/α3]β4): 1.6 (1.2–2.3) | Hill Slope (h[α6M112V/α3]β4): 1.4 (1.1–1.8)
